According to patent publication US20110166121A1 (LG LIFE SCIENCES LTD., priority 2008, published 2011):

Experiments:
[1] = target: T1, Human P2Y12 receptor (Homo sapiens, UniProt Q9H244); experiment: Human P2Y12 receptor cell membrane binding assay with [3H] 2-Mes-ADP; settings: 1 nM [3H] 2-Mes-ADP, membranes of HEK cells expressing P2Y12 receptor; read-out: Binding activity (IC50)
T1 construct: expressed in transfected cells; host or cells: HEK cells
In short: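 Competition binding used 1 nM [3H]2-MeS-ADP on P2Y12-expressing HEK cell membranes for 1 h at room temperature, followed by filtration and scintillation counting.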

[2] = system: Human platelet aggregation caused by ADP; experiment: Inhibition of ADP-induced platelet aggregation (Mimic-human PRP); format: cell-based; settings: 20 μM ADP, human platelet concentrate diluted with PPP, absorption at 595 nm
In short: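 Ki came from non-linear sigmoidal fits of inhibition, measured as the 3-min rise in absorbance at 595 nm after 20 μM ADP, relative to 0/20 μM ADP controls. Platelets (3–4×10^8/mL in PPP-diluted human PRP) were exposed to 0.01–30 μM compound for 20 min at room temperature beforehand.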

T1 sequence (Q9H244 whole entry): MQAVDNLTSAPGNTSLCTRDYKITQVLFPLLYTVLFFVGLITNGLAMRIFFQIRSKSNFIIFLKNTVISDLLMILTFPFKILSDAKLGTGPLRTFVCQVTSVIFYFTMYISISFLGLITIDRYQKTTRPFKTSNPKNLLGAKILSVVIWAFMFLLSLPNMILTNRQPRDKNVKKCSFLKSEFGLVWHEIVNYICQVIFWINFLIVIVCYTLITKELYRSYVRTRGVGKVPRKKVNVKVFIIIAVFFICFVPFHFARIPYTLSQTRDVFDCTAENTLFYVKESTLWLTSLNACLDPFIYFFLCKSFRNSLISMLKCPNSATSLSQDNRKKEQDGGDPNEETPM

Row | SMILES | IC50 [1] | Ki [2]
1 | CCCc1cc2c(N3CCn4c(nnc4C(F)(F)F)C3)nc(OCCNC(=O)CN)nc2s1 [Example 3-65, 2-Amino-N-{2-[6-propyl-4-(3-trifluoromethyl-5,6-dihydro-8H-[1,2,4]triazolo[4,3-a]pyrazin-7-yl)-thieno[2,3-d]pyrimidin-2-yloxy]-ethyl}-acetamide] | 0.18 µM | 0.013 µM
2 | CCCc1cc2c(N3CCn4c(nnc4C(F)(F)F)C3)nc(OCCNC(=O)CS(C)(=O)=O)nc2s1 [Example 3-66, 2-Methanesulfonyl-N-{2-[6-propyl-4-(3-trifluoromethyl-5,6-dihydro-8H-[1,2,4]triazolo[4,3-a]pyrazin-7-yl)-thieno[2,3-d]pyrimidin-2-yloxy]-ethyl}-acetamide] | 0.15 µM | 0.07 µM
3 | CCCc1cc2c(N3CCn4c(nnc4C(F)(F)F)C3)nc(OCCNC(=O)CCCS(N)(=O)=O)nc2s1 [Example 3-67, N-{2-[6-Propyl-4-(3-trifluoromethyl-5,6-dihydro-8H-[1,2,4]triazolo[4,3-a]pyrazin-7-yl)-thieno[2,3-d]pyrimidin-2-yloxy]-ethyl}-4-sulfamoyl-butyramide] | 0.09 µM | 0.017 µM
4 | CCCc1cc2c(N3CCn4c(nnc4C(F)(F)F)C3)nc(OCCNS(=O)(=O)C3CC3)nc2s1 [Example 3-68, Cyclopropanesulfonic Acid {2-[6-propyl-4-(3-trifluoromethyl-5,6-dihydro-8H-[1,2,4]triazolo[4,3-a]pyrazin-7-yl)-thieno[2,3-d]pyrimidin-2-yloxy]-ethyl}-amide] | 0.14 µM | 0.12 µM
5 | CCCc1cc2c(N3CCn4c(nnc4C(F)(F)F)C3)nc(OCCNS(=O)(=O)C(F)(F)F)nc2s1 [Example 3-69, C,C,C-Trifluoro-N-{2-[6-propyl-4-(3-trifluoromethyl-5,6-dihydro-8H-[1,2,4]triazolo[4,3-a]pyrazin-7-yl)-thieno[2,3-d]pyrimidin-2-yloxy]-ethyl}-methanesulfonamide] | 0.18 µM | 4.1 µM
6 | CCCc1cc2c(N3CCn4c(nnc4C(F)(F)F)C3)nc(OCCNC(=O)c3ccccn3)nc2s1 [Example 3-70, Pyridine-2-carboxylic acid {2-[6-propyl-4-(3-trifluoromethyl-5,6-dihydro-8H-[1,2,4]triazolo[4,3-a]pyrazin-7-yl)-thieno[2,3-d]pyrimidin-2-yloxy]-ethyl}-amide] | 0.017 µM | 0.007 µM
7 | CCCc1cc2c(N3CCn4c(nnc4C(F)(F)F)C3)nc(C(N)=O)nc2s1 [Example 4-3, 6-Propyl-4-(3-trifluoromethyl-5,6-dihydro-8H-[1,2,4]triazolo[4,3-a]pyrazin-7-yl)-thieno[2,3-d]pyrimidine-2-carboxylic acid amide] | 0.63 µM | 0.12 µM
8 | CCCc1cc2c(N3CCn4c(nnc4C(F)(F)F)C3)nc(C(=O)NCCC(=O)OCC)nc2s1 [Example 4-6, 3-{[6-Propyl-4-(3-trifluoromethyl-5,6-dihydro-8H-[1,2,4]triazolo[4,3-a]pyrazin-7-yl)thieno[2,3-d]pyrimidine-2-carbonyl]amino}propionic acid ethyl ester] | 2.89 µM | 1.2 µM
9 | CCCc1cc2c(N3CCn4c(nnc4C(F)(F)F)C3)nc(C(=O)NCCC(=O)O)nc2s1 [Example 4-7, 3-{[6-Propyl-4-(3-trifluoromethyl-5,6-dihydro-8H-[1,2,4]triazolo[4,3-a]pyrazin-7-yl)thieno[2,3-d]pyrimidine-2-carbonyl]amino}propionic acid] | 0.62 µM | 0.32 µM
10 | CCCc1cc2c(N3CCn4c(nnc4C(F)(F)F)C3)nc(C(=O)NCC(=O)OCC)nc2s1 [Example 4-8, {[6-Propyl-4-(3-trifluoromethyl-5,6-dihydro-8H-[1,2,4]triazolo[4,3-a]pyrazin-7-yl)thieno[2,3-d]pyrimidine-2-carbonyl]amino}acetic acid ethyl ester] | 0.47 µM | 0.55 µM
